From patent publication US20250333397A1 (REMIX THERAPEUTICS INC., priority 2021, published 2025)
Read-outs that look alike come from different tables or passages of the source.

Assays:
Type in all cases: cell-based, human
HTT mRNA = test: RT-qPCR splicing assay, HTT canonical (CJ) and alternative (AJ) junction mRNA; settings: Homo sapiens; for AC50: read-out: HTT AJ (AC50, increase in AJ mRNA)
Summary of the method: (§1)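 Cells: A673 (DMEM/10% FBS, plated 24 h before) or K562 (IMDM/10% FBS). Dosing: 11-pt 3-fold series, 10 uM top final, ≤0.25% DMSO, 24 h, 37 °C/5% CO2. Readout: RT-qPCR of CJ and AJ junctions, housekeeper-normalized, RQ = 2^(-ΔΔCt) vs DMSO.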

MYB mRNA = test: RT-qPCR splicing assay, MYB canonical (CJ) and alternative (AJ) junction mRNA; settings: Homo sapiens; for AC50: read-out: MYB AJ (AC50, increase in AJ mRNA)
Summary of the method: as §1

Target C mRNA = test: RT-qPCR splicing assay panel, Target C canonical junction (CJ) mRNA; settings: Homo sapiens, canonical junction (CJ) mRNA, RT-qPCR panel, Table 4A; read-out: Target C, decrease in CJ mRNA levels, IC50
Summary of the method: as §1

SMN2 mRNA = test: RT-qPCR splicing assay panel, SMN2 canonical junction (CJ) mRNA; settings: Homo sapiens, canonical junction (CJ) mRNA, RT-qPCR panel, Table 4A; read-out: SMN2, decrease in CJ mRNA levels, IC50
Summary of the method: as §1

[1] = 24 h, Table 3A, A673 or K562 cells, 24 h treatment
[2] = 24 h, Table 3A, A673 or K562 cells, 24 h treatment, read-out: HTT CJ (IC50, decrease in CJ mRNA)
[3] = canonical junction (CJ) mRNA, RT-qPCR panel, Table 4A, read-out: HTT, decrease in CJ mRNA levels, IC50
[4] = 24 h, Table 3A, A673 or K562 cells, 24 h treatment, read-out: MYB CJ (IC50, decrease in CJ mRNA)
[5] = canonical junction (CJ) mRNA, RT-qPCR panel, Table 4A, read-out: MYB, decrease in CJ mRNA levels, IC50

| SMILES | IC50 (HTT mRNA; [2]) [nM] | IC50 (HTT mRNA; [3]) [nM] | IC50 (MYB mRNA; [4]) [nM] | IC50 (MYB mRNA; [5]) [nM] | IC50 (Target C mRNA) [nM] | IC50 (SMN2 mRNA) [nM] | AC50 (HTT mRNA; [1]) [nM] | AC50 (MYB mRNA; [1]) [nM] |
| --- | --- | --- | --- | --- | --- | --- | --- | --- |
| COc1cc(-c2ccc(-c3ccc(N4CCC(NC(C)(C)C)C4=O)nn3)c(O)c2)cnn1 (centres unmarked) [Compound 219, 3-(tert-butylamino)-1-{6-[2-hydroxy-4-(6-methoxypyridazin-4-yl)phenyl]pyridazin-3-yl}pyrrolidin-2-one] | 1000 to 10000 | 1000 to 10000 | 1000 to 10000 | 1000 to 10000 | 1000 to 10000 | 1000 to 10000 | 1000 to 10000 | 1000 to 10000 |
| Cc1ccc(-c2cc(O)c(-c3ccc(N4CC[C@@H](NC5CCC5)C4)nn3)cc2F)cn1 [Compound 222] | 100 to 1000 | 100 to 1000 | 100 to 1000 | 100 to 1000 | 1000 to 10000 | 100 to 1000 | 100 to 1000 | 1000 to 10000 |
| Cc1ccc(-c2cc(O)c(-c3ccc(N4CC[C@H](NC5CCC5)C4)nn3)cc2F)cn1 [Compound 223, 2-{6-[(3S)-3-(cyclobutylamino)pyrrolidin-1-yl]pyridazin-3-yl}-4-fluoro-5-(6-methylpyridin-3-yl)phenol] | 100 to 1000 | 100 to 1000 | 100 to 1000 | 100 to 1000 | 1000 to 10000 | 100 to 1000 | 100 to 1000 | 100 to 1000 |
| COc1cncc(-c2cc(O)c(-c3ccc(N4CC[C@H](NC5CCC5)C4)nn3)cc2F)c1 [Compound 224, 2-{6-[(3S)-3-(cyclobutylamino)pyrrolidin-1-yl]pyridazin-3-yl}-4-fluoro-5-(5-methoxypyridin-3-yl)phenol] | 1000 to 10000 | 1000 to 10000 | > 10000 | > 10000 | > 10000 | 1000 to 10000 | > 10000 | > 10000 |
| COc1cncc(-c2cc(O)c(-c3ccc(N4CC[C@@H](NC5CCC5)C4)nn3)cc2F)c1 [Compound 225, 2-{6-[(3R)-3-(cyclobutylamino)pyrrolidin-1-yl]pyridazin-3-yl}-4-fluoro-5-(5-methoxypyridin-3-yl)phenol] | > 10000 | > 10000 | > 10000 | > 10000 | > 10000 | > 10000 | > 10000 | > 10000 |
| Cc1ncc(-c2cc(O)c(-c3ccc(N4CC[C@@H](NC5CCC5)C4)nn3)cc2F)o1 [Compound 228, 2-{6-[(3R)-3-(cyclobutylamino)pyrrolidin-1-yl]pyridazin-3-yl}-4-fluoro-5-(2-methyl-1,3-oxazol-5-yl)phenol] | 100 to 1000 | 100 to 1000 | 100 to 1000 | 100 to 1000 | 100 to 1000 | < 100 | 100 to 1000 | 100 to 1000 |

The next lines start with results.

| IC50 (HTT mRNA; [2]) [nM] | IC50 (HTT mRNA; [3]) [nM] | IC50 (MYB mRNA; [4]) [nM] | IC50 (MYB mRNA; [5]) [nM] | IC50 (Target C mRNA) [nM] | IC50 (SMN2 mRNA) [nM] | SMILES | AC50 (HTT mRNA; [1]) [nM] | AC50 (MYB mRNA; [1]) [nM] |
| --- | --- | --- | --- | --- | --- | --- | --- | --- |
| < 100 | < 100 | < 100 | < 100 | < 100 | < 100 | COc1cc(-c2cc(O)c(-c3ccc(N4CC[C@@H](NC(C)(C)C)C4)nn3)cc2F)cnn1 [Compound 212, 2-{6-[(3R)-3-(tert-butylamino)pyrrolidin-1-yl]pyridazin-3-yl}-4-fluoro-5-(6-methoxypyridazin-4-yl)phenol] | < 100 | < 100 |
| 100 to 1000 | 100 to 1000 | 100 to 1000 | 100 to 1000 | 1000 to 10000 | < 100 | COc1cc(-c2cc(O)c(-c3ccc(N4CC[C@@H](NC5CC5)C4)nn3)cc2F)cnn1 [Compound 213, 2-{6-[(3R)-3-(cyclopropylamino)pyrrolidin-1-yl]pyridazin-3-yl}-4-fluoro-5-(6-methoxypyridazin-4-yl)phenol] | 100 to 1000 | 1000 to 10000 |
| < 100 | < 100 | 100 to 1000 | 100 to 1000 | 100 to 1000 | < 100 | COc1cc(-c2cc(O)c(-c3ccc(N4CC[C@H](NC5CC5)C4)nn3)cc2F)cnn1 [Compound 214, 2-{6-[(3S)-3-(cyclopropylamino)pyrrolidin-1-yl]pyridazin-3-yl}-4-fluoro-5-(6-methoxypyridazin-4-yl)phenol] | < 100 | 100 to 1000 |
| < 100 | < 100 | 100 to 1000 | 100 to 1000 | 100 to 1000 | < 100 | COc1cc(-c2ccc(-c3ccc(N4CC[C@H](NC5CC5)C4)nn3)c(O)c2)cnn1 [Compound 215, 2-{6-[(3S)-3-(cyclopropylamino)pyrrolidin-1-yl]pyridazin-3-yl}-5-(6-methoxypyridazin-4-yl)phenol] | < 100 | 100 to 1000 |
| < 100 | < 100 | 100 to 1000 | 100 to 1000 | 100 to 1000 | < 100 | COc1cc(-c2ccc(-c3ccc(N4CC[C@@H](NC5CC5)C4)nn3)c(O)c2)cnn1 [Compound 216, 2-{6-[(3R)-3-(cyclopropylamino)pyrrolidin-1-yl]pyridazin-3-yl}-5-(6-methoxypyridazin-4-yl)phenol] | 100 to 1000 | 100 to 1000 |
| < 100 | < 100 | < 100 | < 100 | < 100 | < 100 | COc1cc(-c2ccc(-c3ccc(N4C[C@@H](F)[C@@H](NC(C)(C)C)C4)nn3)c(O)c2)cnn1 [Compound 218, 2-{6-[(3S,4R)-3-(tert-butylamino)-4-fluoropyrrolidin-1-yl]pyridazin-3-yl}-5-(6-methoxypyridazin-4-yl)phenol] | < 100 | < 100 |
| 100 to 1000 | 100 to 1000 | 100 to 1000 | 100 to 1000 | 100 to 1000 | 100 to 1000 | O=c1cc(-c2cc(O)c(-c3ccc(N4CC[C@@H](NC5CCC5)C4)nn3)cc2F)cc[nH]1 [Compound 220, 4-(4-{6-[(3R)-3-(cyclobutylamino)pyrrolidin-1-yl]pyridazin-3-yl}-2-fluoro-5-hydroxyphenyl)-1H-pyridin-2-one] | 100 to 1000 | 100 to 1000 |
| 100 to 1000 | 100 to 1000 | 100 to 1000 | 100 to 1000 | 1000 to 10000 | < 100 | O=c1cc(-c2cc(O)c(-c3ccc(N4CC[C@H](NC5CCC5)C4)nn3)cc2F)cc[nH]1 [Compound 221] | 100 to 1000 | 1000 to 10000 |
| < 100 | < 100 | 100 to 1000 | 100 to 1000 | 100 to 1000 | < 100 | Cc1cn(-c2cc(O)c(-c3ccc(N4CC[C@@H](NC5CCC5)C4)nn3)cc2F)cn1 [Compound 226, 2-{6-[(3R)-3-(cyclobutylamino)pyrrolidin-1-yl]pyridazin-3-yl}-4-fluoro-5-(4-methylimidazol-1-yl)phenol] | 100 to 1000 | 100 to 1000 |
| < 100 | < 100 | 100 to 1000 | 100 to 1000 | 100 to 1000 | < 100 | Cc1cn(-c2cc(O)c(-c3ccc(N4CC[C@H](NC5CCC5)C4)nn3)cc2F)cn1 [Compound 227, 2-{6-[(3S)-3-(cyclobutylamino)pyrrolidin-1-yl]pyridazin-3-yl}-4-fluoro-5-(4-methylimidazol-1-yl)phenol] | < 100 | 100 to 1000 |
